Experimental data taken from patent US9662404B2, “Compositions and methods for the delivery of molecules into live cells” (The Texas A&M University System, priority 2013, dated 2017).
Ends that are not written are not given here.

How the values were obtained:
HeLa cells = test: Quantitative determination of peptide uptake inside cells (bulk fluorescence of cell lysates); type: cell-based; settings: 1-10 μM, 1 h
Protocol: HeLa cells were seeded in a 48 well dish, grown and washed as described above. For the peptide uptake experiment, each well was incubated for 1 h with varying concentration of acTAT, TAT or dTAT (range: 5-25 μM peptide concentration). For the titration experiment, cells were incubated with dTAT (5 μM) and varying concentrations of DEAC-K9 (range: 1-20 μM). Cells were then washed with PBS and nrL-15 and imaged. Multiple images for each condition were obtained and processed. To lyse cells, nrL-15 was removed from the wells and a total of 100 μL of HeLa cell lysis Buffer (50 mM Tris pH 7.5, 2 mM EDTA, 2 mM DTT, 0.1% Triton X-100) was incubated with cells for 5 min. The cells were lysed and scraped off the dish and pipetted into a 1.5 mL microcentrifuge tube. The cell lysates were centrifuged at 13.2K RPM for 25 min. […] The fluorescence from the cell lysates were measured using a plate reader equipped with a fluorescence module (Ex==525, Em=580-640 nm) (GloMax®-Multi+ Detection System, Promega, Fitchburg, Wis.). For the titration experiment, 80 μL of supernatant was diluted to a total volume of 100 μL and the bulk fluorescence was measured using a SLM-8000C fluorometer (Ex=435 nm, Em=465-475 nm) (SLM Instruments, Bath, UK). The fluorescence emission was averaged and recorded. […] The absorbance at 600 nm was measured using the plate reader. […]

HeLa or NIH 3T3 cells = test: dTAT-mediated delivery of EGFP by co-incubation; type: cell-based; settings: EGFP 10 μM and dTAT 5 μM, 1 h
Protocol: dTAT, DEAC-K9 and, SNAP-Surface® 488 are relatively small molecules. It was therefore addressed whether dTAT-mediated endosomal leakage could deliver large proteins into the cytosol of cells. For this assay, EGFP (26 kDa) was chosen as a model, since this protein is fluorescent only when properly folded. EGFP and dTAT were incubated for 1 h with cells and the protein distribution was examined by fluorescence. […] While protein degradation might take place during delivery, this assay establishes that a population of folded protein is delivered.
Images were acquired as described before.

NIH 3T3 cells = test: HoxB4 and TAT-HoxB4 delivery, luciferase reporter under a HoxB4-inducible promoter; type: cell-based, murine; settings: dTAT 3 μM alone
Protocol: Next, the delivery of the therapeutically important transcription factor HoxB4 was tested. HoxB4 can penetrate cells by itself or when fused to the […] TAT and activate transcription. […] NIH 3T3 cells were transfected with a vector containing the luciferase gene under a HoxB4-inducible promoter and with a β-galactosidase reporter as internal control. Cells were incubated with HoxB4 or TAT-HoxB4, in the absence or presence of dTAT for 1.5 h. Cells were then lysed and luciferase expression was assessed by measuring the luminescence of cell lysates normalized to β-galactosidase activity. […] These values are consistent with previously published reports. In contrast, addition of dTAT (3 μM), led to a luciferase induction of 53.1 and 307.4, respectively. The luciferase induction was therefore increased 24-fold in the presence of dTAT for HoxB4 and 61-fold for TAT-HoxB4. […] While increasing the transcriptional output of HoxB4 is valuable, high levels of HoxB4 expression can result in anti-proliferative and transforming effects. Precisely controlling the level and activity of HoxB4 inside cells is therefore important to achieve a desirable biological outcome. Because dTAT appears to act independently of the molecules used for co-incubation in our assays, it was hypothesized that it might be possible to titrate the amount of protein that penetrates cells by varying the protein concentration in the media while keeping dTAT concentration constant. Under this scenario, the efficiency of endosomal escape should remain unaffected but the amount of material released from endosomes should change.
The murine fibroblast cell line (NIH-3T3, stably transfected with the E2A-PBX vector), the luciferase reporter vector, pML (5×HOX/PBX; contains a promoter with binding sites for HOXB4 and PBX) and the β-gal internal control vector used in the following studies were kindly provided by P. Zandstra (University of Toronto, Ontario, Canada). The cells were initially cultured in 100 mm dishes at 37° C. with 5% CO2 in DMEM supplemented with 10% FBS. For experimental purposes, however, cells were seeded in 24-well plates at a density of 5-6×10^4 cells/well for 24 hours. Subsequently, cells were co-transfected with 0.8 μg/mL of pML (5×HOX/PBX) and of the β-gal internal control vector using Lipofectamine 2000. Twelve hours post-transfection, cells were washed and incubated with TAT-HoxB4 or HoxB4 (both at 200 nM, unless otherwise noted; see below) with or without TAT or dTAT in nrL-15 for 90 min. Some cells were also incubated with TAT-mCherry (200 nM) with and without the peptides. After incubation, all cells were washed with PBS and lysed according to the manufacturer's protocol for the reporter lysis buffer (RLB) (Promega). For titration experiments, the same protocol was followed, with the exception that HoxB4 concentrations were varied (25, 50, 100, 150 and 200 nM). In order to quantitate the luciferase reporter activity, 100 μL of luciferase assay reagent (Promega) was added to 20 μL of cell lysate and bioluminescence was immediately measured using a SpectraMaxL luminometer (Sunnyvale, Calif.). […] Absorbance was then measured at 450 nm using the plate reader. Since the absorption spectrum of the chromophore (TMR) conjugated to the peptide used in this study overlaps with that of β-gal, 20 μL of cell lysate containing the peptide was also diluted with 180 μL of the lysis buffer and absorbance values obtained at 450 nm were subtracted from that of the β-gal absorbance values. […]

[1] = system: HeLa cells expressing SNAPH2B; test: Endosomal leakage efficiency with SNAP-Surface 488; settings: 2.5 μM dTAT with 5 μM SNAP-Surface 488, 1 h
Protocol: HeLa cells were incubated with 5 μM SNAP-Surface® 488 for 1 h, washed and imaged. […] It should be noted that SNAP-Surface® 488 fluorescence is quenched (80%) before it reacts with the SNAP fusion tag.
HeLa cells were seeded in 8-well dishes, grown and washed as described in the prior section. Cells were then co-incubated with 5 M delivery peptide and with the cargo at the corresponding concentration for 1 h at 37° C. Cells were washed 3 times with PBS and nrL-15 and placed on the microscope. Images were acquired as described before. For transfection and expression of SNAP-H2B and TagCFP-mito, plasmids were mixed with Lipofectamine™ 2000 reagent in opti-MEM media and incubated at room temperature for 30 min. The DNA complex was added to previously seeded HeLa cells (80% confluent) on an 8-well dish and cells were kept at 37° C. for 24 h.

## (CK(TMR)TAT)2 (CK(TMR)RKKRRQRRRG; also: dimer) [dTAT]
HeLa cells
  overall amount of peptide inside cells (cytosol+endosomes), bulk fluorescence of lysates: almost linearly correlated to the concentration of dTAT administered extracellularly
HeLa or NIH 3T3 cells
  cells with EGFP distributed into the cytosol and nucleus: more than 90%
  toxicity during EGFP delivery: without observable toxicity
NIH 3T3 cells
  induction of luciferase: Neither dTAT alone nor dTAT incubated with TAT-mCherry led to the induction of luciferase
[1]
  cytosolic release: does not result in significant cytosolic release
